Source: PMC12663734, “Sulfonamine-containing aurone derivatives act as inhibitors of intercellular movement of potato virus Y” (iScience, 2025)
Converted amounts (≈) assume the structure as drawn.

Experiments:
PVY [1] = assay: Anti-PVY protective activity, half-leaf method; details: Potato virus Y, in Chenopodium amaranticolor, 120 h, read-out: Protective effect (%)
Procedure: (§1) Owing to its non-host resistance to PVY, Chenopodium amaranticolor develops a hypersensitive response (HR) within 48–72 hours post-inoculation, producing sharply delimited chlorotic or necrotic local lesions on the inoculated leaves. The number of lesions correlates linearly and positively with virus titre, thereby serving as a quantitative indicator of viral virulence and of the inactivating efficacy of test compounds. The PVY viral extract was rubbed onto the surface of Nicotiana tabacum K326 leaves. After the characteristic symptoms of leaf wrinkling and inward curling appeared, the leaves were harvested and stored at -80°C, then purified according to previously reported methods.[50]^,[51]^,[52] Host leaves were ground to a fine powder in liquid nitrogen, followed by homogenization on ice in 0.5 M phosphate buffer. An equal volume of chloroform:n-butanol (1:1, v/v) corresponding to 10% of the total buffer volume was added, and the mixture was further homogenized on ice. After centrifugation at 10,000g for 20 minutes (4°C), the supernatant was collected as the crude PVY extract. Using 4–5-leaf-stage Chenopodium amaranticolor maintained under optimal growth conditions, a bioassay was conducted with two plants per treatment to systematically evaluate the curative, protective, and inactivating efficacy of the target compound against PVY.[53] […] Each compound was evaluated in three replicates, and the average value was calculated.
In contrast to the antiviral therapeutic activity, the leaves were first treated with the drug solution. A 500 μg/mL drug solution was applied to the right side of the leaves, with the left side serving as a control and treated with a 1% Tween 80 solution. After the leaves had dried under natural conditions, they were placed in a greenhouse for 24 hours before inoculation by rubbing with carborundum, following the same procedures as those for curative activity. After treatment, the plants were maintained in a greenhouse, and the number of local lesions on the inoculated leaves was recorded approximately 5 days.

PVY [2] = assay: Anti-PVY inactivating activity, half-leaf method; details: for pest or weed control at 500 µg/mL / EC50: Potato virus Y, in Chenopodium amaranticolor; for pest or weed control at 500 µg/mL: 120 h; for EC50: read-out: Inactivating effect EC50
Procedure: as §1
Two different dilutions of the virus solution (600-fold and 1200-fold) were prepared, along with a 1000 μg/mL drug solution. The drug solution was mixed with the 600-fold diluted virus solution on ice and incubated for 30 minutes. During the incubation period, the left side of the leaves was treated with a 1200-fold diluted virus solution. After the incubation was completed, the mixed system of drug and virus is inoculated on the right side of the leaf. After waiting for the infection to be completed, the carborundum on the leaf surface was washed off with running water, and the plants were then cultivated in a greenhouse. The number of dead spots on the leaves was counted after approximately 5 days.

PVY [3] = assay: Anti-PVY curative activity, half-leaf method; details: Potato virus Y, in Chenopodium amaranticolor, 120 h, read-out: Curative effect (%)
Procedure: as §1
Chenopodium amaranticolor was selected as the dead spot host. Excess leaves were first trimmed off, and a uniform layer of carborundum was applied to the leaf surface. The leaves were then inoculated by rubbing with a 1200-fold diluted virus solution. After more than an hour, the carborundum on the leaf surface was washed off with running water, and a 500 μg/mL drug solution was prepared. […] The treated plants were cultivated in a greenhouse for observation, and the number of dead spots on the leaves was counted after approximately 5 days.

PVY CP^P154A = target: T1, PVY CP^P154A (Potato virus Y, UniProt P18247, P2950A); assay: MST binding to mutant PVY CP^P154A
T1 construct: 6xHis tag (within the N-terminal pET-32a(+) fusion leader; the Trx and S-tag parts are inferred from the vector and the ~50 kDa band) (N, cleaved yes); made in house; host or cells: Escherichia coli BL21 (DE3) pLysS
T1 sequence (P18247 2797-3063 P2950A): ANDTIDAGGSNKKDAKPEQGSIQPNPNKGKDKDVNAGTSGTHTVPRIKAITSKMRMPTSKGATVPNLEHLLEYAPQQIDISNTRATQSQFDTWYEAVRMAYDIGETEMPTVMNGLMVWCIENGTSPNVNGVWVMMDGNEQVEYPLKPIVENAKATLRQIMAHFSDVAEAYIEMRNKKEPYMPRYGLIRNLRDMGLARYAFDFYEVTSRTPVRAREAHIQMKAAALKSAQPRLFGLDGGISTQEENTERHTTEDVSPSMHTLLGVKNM

PVY CP = target: T2, PVY CP (Potato virus Y, UniProt P18247); assay: biochemical; type: binding
T2 construct: 6xHis tag (within the N-terminal pET-32a(+) fusion leader; the Trx and S-tag parts are inferred from the vector and the ~50 kDa band) (N, cleaved yes); made in house; host or cells: Escherichia coli BL21 (DE3) pLysS
T2 sequence (P18247 2797-3063): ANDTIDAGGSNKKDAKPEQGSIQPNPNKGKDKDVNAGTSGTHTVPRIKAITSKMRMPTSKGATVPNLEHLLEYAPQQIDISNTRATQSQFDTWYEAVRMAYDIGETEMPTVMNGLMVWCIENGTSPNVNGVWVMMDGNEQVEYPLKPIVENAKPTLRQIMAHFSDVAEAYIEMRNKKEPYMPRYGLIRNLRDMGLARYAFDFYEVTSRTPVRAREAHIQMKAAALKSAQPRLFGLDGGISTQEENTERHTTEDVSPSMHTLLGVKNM

[4] = read-out: Inactivating effect (%), 500 μg/mL, host Chenopodium amaranticolor, average of three replicates

EC50 (PVY [2]) | SMILES | pest or weed control at 500 µg/mL (PVY [1]) | pest or weed control at 500 µg/mL (PVY [2]; [4]) | pest or weed control at 500 µg/mL (PVY [3]) | pest or weed control at 500 µg/mL (PVY [2]; read-out: Inactivating effect (%)) | Inactivating effect (%) (PVY [2]; 500 μg/mL, host Chenopodium amaranticolor, average of three replicates) | Kd (PVY CP^P154A) | Kd (PVY CP)
307 ± 13.7 µg/mL (≈ 614 µM) | COc1ccc(/C=C2\Oc3cc(OCC(=O)NS(=O)(=O)c4ccc(Cl)cc4)ccc3C2=O)cc1 [D1] | 44.8 ± 3.8% | 50 ± 3.5% | 38.7 ± 3.7% |  |  |  | 
 | COc1ccc(/C=C2\Oc3cc(OCC(=O)NS(=O)(=O)c4ccccc4)ccc3C2=O)cc1 [D2] | 36.9 ± 2.7% | 60 to 80% | 41.4 ± 2.9% |  |  |  | 
 | COc1ccccc1/C=C1\Oc2cc(OCC(=O)NS(=O)(=O)c3ccc(Cl)cc3)ccc2C1=O [D3] | 36.9 ± 2.9% | 60 to 80% | 40.1 ± 3.8% |  |  |  | 
 | COc1ccccc1/C=C1\Oc2cc(OCC(=O)NS(=O)(=O)c3ccccc3)ccc2C1=O [D4] | 33.8 ± 1% | 60 to 80% | 43.1 ± 2.9% |  |  |  | 
 | COc1cccc(/C=C2\Oc3cc(OCC(=O)NS(=O)(=O)c4ccc(Cl)cc4)ccc3C2=O)c1 [D5] | 37.6 ± 4.8% | 60 to 80% | 41.7 ± 3.5% |  |  |  | 
 | COc1cccc(/C=C2\Oc3cc(OCC(=O)NS(=O)(=O)c4ccccc4)ccc3C2=O)c1 [D6] | 40.5 ± 0.8% | 58.8 ± 4.5% | 36.5 ± 2.9% |  |  |  | 
 | COc1ccc(/C=C2\Oc3cc(OCC(=O)NS(=O)(=O)c4ccc(F)cc4)ccc3C2=O)c(OC)c1 [D9] | 35.6 ± 2.5% | 58.1 ± 5.4% | 45.7 ± 3.3% |  |  |  | 
 | COc1ccc(/C=C2\Oc3cc(OCC(=O)NS(=O)(=O)c4ccc(F)cc4)ccc3C2=O)cc1 [D10] | 33.9 ± 4% | 43.7 ± 5% | 24.4 ± 1.9% |  |  |  | 
 | COc1cccc(/C=C2\Oc3cc(OCC(=O)NS(=O)(=O)c4ccc(F)cc4)ccc3C2=O)c1 [D11] | 42.7 ± 2.8% | 52.9 ± 2.8% | 40.6 ± 2% |  |  |  | 
 | COc1ccccc1/C=C1\Oc2cc(OCC(=O)NS(=O)(=O)c3ccc(F)cc3)ccc2C1=O [D12] | 44.5 ± 1.5% | 59.4 ± 3.6% | 34.1 ± 3.5% |  |  |  | 
 | COc1ccc(/C=C2\Oc3cc(OCC(=O)NS(=O)(=O)c4ccc(Br)cc4)ccc3C2=O)c(OC)c1 [D14] | 37.9 ± 4.4% | 49.2 ± 4.2% | 29.8 ± 4.8% |  |  |  | 
 | COc1ccccc1/C=C1\Oc2cc(OCC(=O)NS(=O)(=O)c3ccc(Br)cc3)ccc2C1=O [D15] | 39.3 ± 2.9% | 53.4 ± 4.2% | 37.1 ± 0.9% |  |  |  | 
 | COc1cccc(/C=C2\Oc3cc(OCC(=O)NS(=O)(=O)c4ccc(Br)cc4)ccc3C2=O)c1 [D16] | 36.9 ± 2.4% | 42.9 ± 4.3% | 29 ± 1.6% |  |  |  | 
142 ± 15.2 µg/mL (≈ 267 µM) | COc1cccc(/C=C2\Oc3cc(OCC(=O)NS(=O)(=O)c4ccc(Cl)cc4)ccc3C2=O)c1OC [D17] | 40.7 ± 2.3% | 60 to 80% | 46.2 ± 1.4% |  |  |  | 
 | COc1ccc(/C=C2\Oc3cc(OCC(=O)NS(=O)(=O)c4ccc(Cl)cc4)ccc3C2=O)cc1OC [D18] | 38.2 ± 3% | 56.8 ± 2.8% | 25.5 ± 4% |  |  |  | 
 | COc1cc(/C=C2\Oc3cc(OCC(=O)NS(=O)(=O)c4ccc(Cl)cc4)ccc3C2=O)cc(OC)c1 [D19] | 35.7 ± 3.8% | 46 ± 3% | 36.4 ± 5.6% |  |  |  | 
 | COc1cccc(/C=C2\Oc3cc(OCC(=O)NS(=O)(=O)c4ccccc4)ccc3C2=O)c1OC [D20] | 31.3 ± 3.8% | 64.7 ± 3.4% | 34.9 ± 4.9% |  |  |  | 
 | COc1cc(/C=C2\Oc3cc(OCC(=O)NS(=O)(=O)c4ccc(Br)cc4)ccc3C2=O)cc(OC)c1 [D21] | 22.7 ± 1.2% | 50.5 ± 1.6% | 33 ± 3.9% |  |  |  | 

EC50 (PVY [2]) | SMILES | pest or weed control at 500 µg/mL (PVY [1]) | pest or weed control at 500 µg/mL (PVY [2]; [4]) | pest or weed control at 500 µg/mL (PVY [3]) | pest or weed control at 500 µg/mL (PVY [2]; read-out: Inactivating effect (%)) | Inactivating effect (%) (PVY [2]; 500 μg/mL, host Chenopodium amaranticolor, average of three replicates) | Kd (PVY CP^P154A) | Kd (PVY CP)
 | COc1ccc(/C=C2\Oc3cc(OCC(=O)NS(=O)(=O)c4ccc(Br)cc4)ccc3C2=O)cc1OC [D22] | 28.1 ± 2.3% | 52 ± 3% | 36.2 ± 1.5% |  |  |  | 
 | COc1ccc(/C=C2\Oc3cc(OCC(=O)NS(=O)(=O)c4ccccc4)ccc3C2=O)cc1OC [D23] | 33.4 ± 3.9% | 45.4 ± 1.1% | 35.3 ± 1.5% |  |  |  | 
147 ± 11 µg/mL (≈ 297 µM) | COc1cc(/C=C2\Oc3cc(OCC(=O)NS(=O)(=O)c4ccccc4)ccc3C2=O)cc(OC)c1 [D24] | 31 ± 3% | 60 to 80% | 50.1 ± 1.8% |  |  |  | 
 | COc1cccc(/C=C2\Oc3cc(OCC(=O)NS(=O)(=O)c4ccc(Br)cc4)ccc3C2=O)c1OC [D25] | 41.9 ± 2.6% | 55.4 ± 2% | 35.9 ± 3.9% |  |  |  | 
 | COc1ccc(/C=C2\Oc3cc(OCC(=O)NS(=O)(=O)c4ccc(F)cc4)ccc3C2=O)cc1OC [D26] | 40.2 ± 5% | 55.3 ± 3% | 32.4 ± 1.7% |  |  |  | 
 | COc1cccc(/C=C2\Oc3cc(OCC(=O)NS(=O)(=O)c4ccc(F)cc4)ccc3C2=O)c1OC [D27] | 33.9 ± 2.3% | 60 to 80% | 45.1 ± 3.7% |  |  |  | 
 | COc1cc(/C=C2\Oc3cc(OCC(=O)NS(=O)(=O)c4ccc(F)cc4)ccc3C2=O)cc(OC)c1 [D28] | 32.5 ± 4.4% | 56.4 ± 4.7% | 39.9 ± 2.9% |  |  |  | 
 | COc1cc(OC)c(/C=C2\Oc3cc(OCC(=O)NS(=O)(=O)c4ccc(F)cc4)ccc3C2=O)c(OC)c1 [D29] | 37.9 ± 2.7% | 57.1 ± 4.3% | 36.7 ± 4% |  |  |  | 
 | COc1ccc(OC)c(/C=C2\Oc3cc(OCC(=O)NS(=O)(=O)c4ccccc4)ccc3C2=O)c1 [D30] | 34.2 ± 3.3% | 49.4 ± 3.4% | 33.3 ± 1.4% |  |  |  | 
 | COc1cc(OC)c(/C=C2\Oc3cc(OCC(=O)NS(=O)(=O)c4ccccc4)ccc3C2=O)c(OC)c1 [D31] | 26.3 ± 2.6% | 57.4 ± 4.3% | 42.9 ± 2.4% |  |  |  | 
 | COc1cc(OC)c(/C=C2\Oc3cc(OCC(=O)NS(=O)(=O)c4ccc(Cl)cc4)ccc3C2=O)c(OC)c1 [D32] | 33.3 ± 2.6% | 53.8 ± 3% | 43.4 ± 2.3% |  |  |  | 
 | COc1ccc(OC)c(/C=C2\Oc3cc(OCC(=O)NS(=O)(=O)c4ccc(Cl)cc4)ccc3C2=O)c1 [D33] | 39.7 ± 2.7% | 51.1 ± 3.9% | 41.2 ± 2.4% |  |  |  | 
 | COc1ccc(OC)c(/C=C2\Oc3cc(OCC(=O)NS(=O)(=O)c4ccc(F)cc4)ccc3C2=O)c1 [D34] | 36 ± 1.6% | 46.9 ± 2.4% | 39.9 ± 3.7% |  |  |  | 
 | COc1ccccc1/C=C1\Oc2cc(OCC(=O)NS(=O)(=O)c3cccc(C(F)(F)F)c3)ccc2C1=O [D35] | 39.9 ± 2.8% | 46.6 ± 2% | 37.6 ± 1.8% |  |  |  | 
 | COc1ccc(/C=C2\Oc3cc(OCC(=O)NS(=O)(=O)c4cccc(C(F)(F)F)c4)ccc3C2=O)cc1 [D36] | 33.9 ± 4.1% | 55.1 ± 2.8% | 36.8 ± 2.2% |  |  |  | 
 | COc1ccc(/C=C2\Oc3cc(OCC(=O)NS(=O)(=O)c4cccc(C(F)(F)F)c4)ccc3C2=O)c(OC)c1 [D37] | 29.8 ± 2.7% | 43.8 ± 3.2% | 38.2 ± 2.2% |  |  |  | 
 | COc1ccc(/C=C2\Oc3cc(OCC(=O)NS(=O)(=O)c4ccc(C(F)(F)F)cc4)ccc3C2=O)c(OC)c1 [D38] | 28 ± 4% | 33.3 ± 3.1% | 36.7 ± 3.5% |  |  |  | 

SMILES | EC50 (PVY [2]) | pest or weed control at 500 µg/mL (PVY [1]) | pest or weed control at 500 µg/mL (PVY [2]; [4]) | pest or weed control at 500 µg/mL (PVY [3]) | pest or weed control at 500 µg/mL (PVY [2]; read-out: Inactivating effect (%)) | Inactivating effect (%) (PVY [2]; 500 μg/mL, host Chenopodium amaranticolor, average of three replicates) | Kd (PVY CP^P154A) | Kd (PVY CP)
CNCC(=O)N[C@@H](CO)C(=O)N[C@H]1[C@H](O)[C@@H](O)[C@H](n2ccc(N)nc2=O)O[C@@H]1C(N)=O [NNM, ningnanmycin, reference compound] | 54.3 ± 2.2 µg/mL (≈ 122 µM) | 49.1 ± 1.8% |  | 49 ± 3.9% | 83.3 ± 1.2% |  |  | 
NC(=O)c1ncn([C@@H]2O[C@H](CO)[C@@H](O)[C@H]2O)n1 [RBV, ribavirin, reference compound] | 213 ± 15.4 µg/mL (≈ 873 µM) | 44.2 ± 3.1% | 59.3% | 41.9 ± 2.7% |  | 59.3 ± 3.8% | 210 ± 59.3 µM | 50.5 µM
